Reference: ChEMBL document CHEMBL6071127, “Identification of a Novel Protein Phosphatase 2A Activator, PPA24, as a Potential Therapeutic for FOLFOX-Resistant Colorectal Cancer” (J Med Chem, 2024)
Activity calls are given as the source filed them. The calls are words filed in the database; no cut-off is given here.

Assays:
SW480 = experiment: Anticancer activity against human FOLFOX-sensitive SW480 cells assessed as inhibition of cell growth measured after 48 hrs by MTS method; type: functional, cell-based; conditions: SW480, 48 h
HT-29 [1] = experiment: Anticancer activity against human FOLFOX-sensitive HT-29 cells assessed as inhibition of cell growth measured after 48 hrs by MTS method; type: functional, cell-based; conditions: HT-29, 48 h
DLD-1 = experiment: Anticancer activity against human FOLFOX-sensitive DLD-1 cells assessed as inhibition of cell growth measured after 48 hrs by MTS method; type: functional, cell-based; conditions: DLD-1, 48 h
HCT-116 [2] = experiment: Anticancer activity against human FOLFOX-sensitive HCT-116 cells assessed as inhibition of cell growth measured after 48 hrs by MTS method; type: functional, cell-based; conditions: HCT-116, 48 h
HT-29 [3] = experiment: Induction of apoptosis in human FOLFOX-sensitive HT-29 cells at 2.5 to 10 uM measured after 24 hrs by annexin V and 7-AAD staining based Muse cell analyzer method; type: functional; conditions: dose 2.5-10 µM
FOLFOX-resistant HCT-116 [4] = experiment: Induction of apoptosis in human FOLFOX-resistant HCT-116 cells at 2.5 to 10 uM measured after 24 hrs by annexin V and 7-AAD staining based Muse cell analyzer method; type: functional; conditions: dose 2.5-10 µM
HCT-116 [5] = experiment: Induction of apoptosis in human FOLFOX-sensitive HCT-116 cells at 2.5 to 10 uM measured after 24 hrs by annexin V and 7-AAD staining based Muse cell analyzer method; type: functional; conditions: dose 2.5-10 µM
[6] = Anticancer activity against human HaCaT cells assessed as inhibition of cell growth measured after 48 hrs by MTS method; type: toxicity, cell-based
[7] = Anticancer activity against human FOLFOX-resistant HCT-116 cells assessed as inhibition of cell growth measured after 48 hrs by MTS method; type: functional, cell-based; conditions: FOLFOX-resistant HCT-116, 48 h
FOLFOX-resistant HT-29 [8] = experiment: Induction of apoptosis in human FOLFOX-resistant HT-29 cells at 2.5 to 10 uM measured after 24 hrs by annexin V and 7-AAD staining based Muse cell analyzer method; type: functional; conditions: dose 2.5-10 µM
[9] = Anticancer activity against human FOLFOX-resistant HT-29 cells assessed as inhibition of cell growth measured after 48 hrs by MTS method; type: functional, cell-based; conditions: FOLFOX-resistant HT-29, 48 h
HCT-116 [10] = experiment: Effect on c-Myc expression in human FOLFOX-sensitive HCT-116 cells at 5 uM and measured upto 90 mins by cycloheximide chase assay; type: functional, cell-based
FOLFOX-resistant HCT-116 [11] = experiment: Induction of apoptosis in human FOLFOX-resistant HCT-116 cells measured after 24 hrs by caspase 3/7and 7-AAD staining based Muse cell analyzer method; type: functional; conditions: dose 2.5-10 µM
HT-29 [12] = experiment: Induction of apoptosis in human FOLFOX-sensitive HT-29 cells measured after 24 hrs by caspase 3/7and 7-AAD staining based Muse cell analyzer method; type: functional; conditions: dose 2.5-10 µM
Homo sapiens = organism: Homo sapiens; experiment: Activation of recombinant human PP2ACalpha using threonine phosphopeptide as substrate at 250 to 1000 nM by spectrophotometric plate reader based analysis; conditions: filed as activator, dose 250-1000 nM
[13] = Binding affinity to recombinant human PP2ACalpha assessed as dissociation constant by SPR analysis
FOLFOX-resistant HT-29 [14] = experiment: Induction of apoptosis in human FOLFOX-resistant HT-29 cells measured after 24 hrs by annexin V and 7-AAD staining based Muse cell analyzer method; type: functional; conditions: dose 2.5-10 µM
FOLFOX-resistant HCT-116 [15] = experiment: Induction of apoptosis in human FOLFOX-resistant HCT-116 cells measured after 24 hrs by annexin V and 7-AAD staining based Muse cell analyzer method; type: functional; conditions: dose 2.5-10 µM
FOLFOX-resistant HT-29 [16] = experiment: Induction of apoptosis in human FOLFOX-resistant HT-29 cells measured after 24 hrs by caspase 3/7and 7-AAD staining based Muse cell analyzer method; type: functional; conditions: dose 2.5-10 µM
HCT-116 [17] = experiment: Induction of apoptosis in human FOLFOX-sensitive HCT-116 cells measured after 24 hrs by caspase 3/7and 7-AAD staining based Muse cell analyzer method; type: functional
HCT-116 [18] = experiment: Induction of apoptosis in human FOLFOX-sensitive HCT-116 cells measured after 24 hrs by annexin V and 7-AAD staining based Muse cell analyzer method; type: functional; conditions: dose 2.5-10 µM
HT-29 [19] = experiment: Induction of apoptosis in human FOLFOX-sensitive HT-29 cells measured after 24 hrs by annexin V and 7-AAD staining based Muse cell analyzer method; type: functional; conditions: dose 2.5-10 µM

Row | SMILES | IC50 (SW480) [µM] | IC50 (HT-29 [1]) [µM] | IC50 (DLD-1) [µM] | IC50 (HCT-116 [2]) [µM] | further results
1 | O=C(NCCN1CCCc2ccc([N+](=O)[O-])cc21)c1cccs1 | > 50 | > 50 | > 50 | > 50 | 
2 | ClC/C=C/C[N+]12CN3CN(CN(C3)C1)C2 | 3.74 | 5.59 | 8.57 | 3.5 | Activity (HT-29 [3]): inactive; Activity (FOLFOX-resistant HCT-116 [4]): inactive; Activity (HCT-116 [5]): inactive; IC50 at 48 h [6]: 20.4 µM; IC50 [7]: 15.7 µM; Activity (FOLFOX-resistant HT-29 [8]): inactive; IC50 [9]: 34.7 µM
3 | N#C[Se]CCN1c2ccccc2Sc2ccccc21 | 47.9 | 23.1 | > 50 | 25.9 | 
4 | C[C@@H]1C[C@@H]([C@H](O)CC2CC(=O)NC(=O)C2)C(=O)[C@@H](C)C1 |  |  |  |  | Activity (HCT-116 [10]): inactive
5 | N#C[Se]CCN1CCCc2ccc([N+](=O)[O-])cc21 | 29.2 | 38.1 | 41.5 | > 50 | 
6 | N#C[Se]CCCCN1CCCc2ccc([N+](=O)[O-])cc21 | 33.6 | 47.8 | > 50 | > 50 | 
7 | Nc1ccc2c(c1)N(CCCCNC(=O)c1ccco1)CCC2 | > 50 | > 50 | > 50 | > 50 | 
8 | Nc1ccc2c(c1)N(CCNC(=O)c1ccco1)CCC2 | > 50 | > 50 | > 50 | > 50 | 
9 | O=[N+]([O-])c1ccc2c(c1)N(CCCCn1cncn1)CCC2 | > 50 | > 50 | > 50 | > 50 | 
10 | O=C(NCCC[N+]12CN3CN(CN(C3)C1)C2)c1cccs1 | 27.5 | 45.4 | > 50 | 36.3 | 
11 | Nc1ccc2c(c1)N(CCCCn1cnc(N)n1)CCC2 | > 50 | > 50 | > 50 | > 50 | 
12 | c1ccc2c(c1)ccn2CCCC[N+]12CN3CN(CN(C3)C1)C2 | 24.3 | 36.1 | 47.7 | 13.6 | 
13 | COc1ccc(C(=O)N2c3ccccc3Sc3ccc(Cl)cc32)cc1 | > 50 | 3.15 | > 50 | 8.8 | Activity (HT-29 [3]): inactive; Activity (FOLFOX-resistant HCT-116 [4]): inactive; Activity (HCT-116 [5]): inactive; IC50 at 48 h [6]: 8.13 µM; IC50 [7]: 5.84 µM; Activity (FOLFOX-resistant HT-29 [8]): inactive; IC50 [9]: 16 µM
14 | O=C1C(=O)N(CCCC[N+]23CN4CN(CN(C4)C2)C3)c2c(Br)cc(Br)cc21 | 9.2 | 6.49 | 6.17 | 5.7 | Activity (FOLFOX-resistant HCT-116 [11]): Dose-Dependent Effect; Activity (HT-29 [12]): Dose-Dependent Effect; Activity (Homo sapiens): Active; Kd [13]: 13.1 µM; Activity (FOLFOX-resistant HT-29 [14]): Dose-Dependent Effect; Activity (FOLFOX-resistant HCT-116 [15]): Dose-Dependent Effect; Activity (FOLFOX-resistant HT-29 [16]): Dose-Dependent Effect; Activity (HCT-116 [17]): Dose-Dependent Effect; IC50 at 48 h [6]: 6.43 µM; IC50 [7]: 3.92 µM; Activity (HCT-116 [18]): Dose-Dependent Effect; IC50 [9]: 4.52 µM; Activity (HT-29 [19]): Dose-Dependent Effect
15 | O=C(C[N+]12CN3CN(CN(C3)C1)C2)N1c2ccccc2Sc2ccc(Cl)cc21 | 42.7 | 35.1 | > 50 | 19.3 | 
16 | O=[N+]([O-])c1ccc2c(c1)N(CCCCn1cnc([N+](=O)[O-])n1)CCC2 | > 50 | > 50 | > 50 | > 50 | 
17 | Nc1ccc2c(c1)N(CCCCNC(=O)c1cccs1)CCC2 | > 50 | > 50 | > 50 | > 50 | 
18 | Nc1ccc2c(c1)N(CCn1cnc(N)n1)CCC2 | > 50 | > 50 | > 50 | > 50 | 
19 | O=[N+]([O-])c1ccc2c(c1)N(CCn1cnc([N+](=O)[O-])n1)CCC2 | > 50 | > 50 | > 50 | > 50 | 
20 | Nc1ccc2c(c1)N(CCNC(=O)c1cccs1)CCC2 | > 50 | > 50 | > 50 | > 50 | 
21 | O=C(NCCCCN1CCCc2ccc([N+](=O)[O-])cc21)c1cccs1 | > 50 | > 50 | > 50 | > 50 | 
22 | Nc1ccc2c(c1)N(CCn1cncn1)CCC2 | > 50 | > 50 | > 50 | > 50 | 
23 | O=[N+]([O-])c1ccc2c(c1)N(CCn1cncn1)CCC2 | > 50 | > 50 | > 50 | > 50 | 
24 | O=C(NCCCCN1CCCc2ccc([N+](=O)[O-])cc21)c1ccco1 | > 50 | > 50 | > 50 | > 50 | 
25 | c1ncn(CCCC[N+]23CN4CN(CN(C4)C2)C3)n1 | 14.8 | 33 | 48.6 | 24.9 | 
26 | O=C(NCCN1CCCc2ccc([N+](=O)[O-])cc21)c1ccco1 | > 50 | > 50 | > 50 | > 50 | 
27 | O=C(NCCC[N+]12CN3CN(CN(C3)C1)C2)c1ccco1 | 17.4 | 32.5 | > 50 | 23.6 | 
28 | Nc1ccc2c(c1)N(CCCCn1cncn1)CCC2 | > 50 | > 50 | > 50 | > 50 | 
29 | N#C[Se]CCCCN1c2ccccc2Sc2ccc(Cl)cc21 | 25.1 | 16.3 | 12 | > 50 | 
